The values below come from patent publication US7258861B2, “TNF-derived peptides for use in treating oedema” (Innogenetics N.V., priority 2001, dated 2007).

The subject of one series is normal rats. The settings on record: instillation in normal rats, over 1 hour; cited from earlier work.
In series [1] the test system is ex vivo instilled rat lung. As to the kind of experiment: Ex vivo rat flooded lung, model of hydrostatic edema. The method, then:
In this model edema is induced by instillating 2 ml of 0.9% NaCl solution intratracheally. Alternatively, edema formation can be modulated by varying the height of the venous outflow and the perfusion buffer containing reservoir, or alternatively by varying the time the lung is exposed to the elevated pressure. […] The clearance of alveolar fluid from the lung is calculated by means of measuring the concentration of HSA, which is added to the instillate over time. Alternatively, the over time weight loss as a measure of edema resorption (high weight loss is high liquid clearance), of the artificially instilled lung can be measured. The lung tidal volume, compliance and weight are monitored continuously during the experiment. At the end of the experiment bronchoalveolar fluid and supernatant of lung homogenate is taken for measurement of inflammatory mediators.
The lungs of female Wistar rats (weight 200–250 g; Harlan-Winkelmann, Borchen, Germany) are prepared after terminal i.p. anesthesia by 160 mg/kg pentobarbitural —Na (Merial Ltd, Halbermoos, Germany) and perfused as described by Uhlig and Wolin (1994), and by Uhlig and von Bethmann (1997). All equipment is obtained from Hugo Sachs Electronics (March-Hugstetten, Germany). […] As perfusion medium, a Krebs-Henseleit buffer (38° C.) containing 2% bovine serum albumin (Fraction V, Scrva. Heidelberg, Germany), 0.1% glucose (Riedel-de-Haën Inc., Seelze, Germany), and 0.3% HEPES (ICN Biomedicals Inc., Ohio, USA) is used. The total amount of recirculating buffer is 100 ml. The lungs are suspended by the trachea and ventilated by negative pressure ventilation (inspiratory pressure: −7 cm H2O, expiratory pressure: −2 cm H2O) with 80 breaths per minute resulting in a tidal volume of approximately 2 ml. Every 5 minutes, a deep inspiratory breath (−20 cm H2O) is performed. Artificial thorax chamber pressure is measured with a differential pressure transducer (Validyne DP 45-14), and an air flow velocity with a pneumotachograh tube (Fleisch Type 0000) connected to a differential pressure transducer (Validyne DP 45-15). The perfusate flow (Narcomatic RT-500) and the arterial and venous pressure (Statham P23BB) are continuously monitored. The pH of the perfusate before entering the lung is kept at 7.25 to 7.35 by automatic bubbling of the buffer with CO2 as soon as the pH exceeds this range. A weight transducer is integrated into the chamber lid which allows the continuous assessment of lung weight. Data are recorded on a Pentium II computer using the Mathlab Sofware package (Mathworks, Inc., Nattick Mass., USA). For lung mechanics, the data are analyzed by applying the following formula: P=1/C*VT+RLdV/dT
Where P is chamber pressure, C pulmonary compliance, VT tidal volume, and RL airway resistance. All lung physiology parameters were normalized to time point 0, i.e. after the end of the preconditioning perfusion of 40 minutes.

Another series deals with isolated rat lungs. The experiment in a line: Isolated blood perfused flooded rat lung (weight, lung mechanics, PV curves, histology).
Another series concerns C57/BL6 wild type mice. The experiment in a line: In situ mouse model of alveolar fluid clearance, wild type mice. It counts as in vivo. To be noted: over 15 min, compared to controls; 0.5 μg/mouse instilled. The method, then: In situ mouse model. Mice were killed by an overdose of pentobarbital sodium (200 mg/kg i.p.). A tracheotomy was done with a 20-gauge trimmed angiocath plastic needle (Becton Dickinson, Sandy, Utah, USA). The lungs were inflated with 7 cm H2O continuous positive airway pressure (CPAP) with 100% oxygen throughout the experiments. Body temperature was maintained at 37–38° C. by an infra-red lamp placed 30 cm above the body (Fisher, Santa Clara, Calif., USA). The lamp was cycled on and off to maintain the core temperature. A temperature probe (Yellow Springs Instrument, Yellow Springs, Ohio, USA) was inserted via a 0.5 cm incision into the abdominal cavity to monitor the core temperature throughout the experiment. These methods have been reported in Matthay et al., 1996 and Ma et al., 2000. […] We added 0.1 μCi of ^131I-labelled albumin (Merck-Frost, Montreal, PQ, Canada) to the instillate as a labeled alveolar protein tracer. • Group 1: Basal alveolar fluid clearance in the wild type mice (n=3) and TNF-R1/TNF-R2 double knock out mice (n=3). • Group 2: Effect of wild type mTNF (0.5 μg/mouse) stimulated alveolar fluid clearance was measured in wild type mice (n=5) and TNF-R1/TNF-R2 double knock out mice (n=5) (Bruce et al., 1996).

Series [2] can be described thus: Quenching of tryptophan fluorescence by brominated lipids. The settings on record: acidic pH. The text has this: In order to investigate whether chloride efflux was due to membrane binding or membrane insertion of TNF, we have analyzed whether brominated lipids were able to quench the intrinsic fluorescence of TNF and mutTNF upon membrane interaction. Brominated lipids have been useful in determining the topology of membrane proteins (Bolon et al., 1990) (Markello et al., 1985) as well as studying the membrane interaction of pore-forming toxins (Gonzalez-Manas et al., 1992) (Van der Goot et al., 1991) (Vecsey-Semjen et al., 1997). TNF contains two tryptophan residues, one at the top of the receptor binding domain and one at the top of the so called tip domain. If the tip of the TNF trimer were to insert into the lipid bilayer, the fluorescence of Trp-113 should be quenched upon insertion into liposomes composed of dioleoylphosphatidylglycerol that had bromines attached at positions 9 and 10 of the acyl chains. We have indeed previously observed that tryptophans located at the boundary between the lipid head groups and the acyl chains were succeptible to bromide quenching.

Several values for one entry are separate records, joined by “and”; a condition that tells them apart may be missing. Equal values may be shown once.

Method for isolated rat lungs: Rats. For the ex vivo experiments, 31 Sprague-Dawley rats (300 to 350 g) were tracheotomized and mechanically ventilated (40% oxygen in air) under isoflurane anesthesia. The experimental protocol was reviewed and approved by the Ethics Committee for Animal Research and by the Veterinary Office of our institution. The femoral vessels were cannulated for blood sampling, fluid replacement, and continuous arterial blood pressure monitoring. Following anticoagulation (1.5 IU/g i.v. heparin), 20 ml of blood were withdrawn and replaced by an equal volume of dextran-40 (Macrodex 10% in normosaline) to serve as priming volume for the isolated perfusion circuit. The heart-lung block was prepared as described by Ma et al., 2000, weighed and assigned to one of four groups. […] The lungs were suspended, mechanically ventilated, and perfused at constant pressure with autologous blood as described by Ma et al., 2000.
An inspiratory and expiratory quasi-static pressure-volume (PV) curve was performed at the end of the 2-hour reperfusion period by inflating and then deflating the lungs at a constant rate (0.3 ml/sec) using an automated infusion pump. A sigh was applied in all groups every 15 minutes to minimize atelectasis formation. The blood pH was maintained between 7.3 and 7.5 and, if necessary, corrected with sodium bicarbonate 8.4% or a change of the inspired CO2 as required by the blood gas analysis. Every 30 minutes, a blood sample was collected for blood gas analysis as well as for hematocrit and electrolyte concentration.
Inclusion criteria. Immediately following the start of reperfusion, the preparation had to fulfill three technical inclusion criteria: • 1) left atrial pressure (LAP) 5-10 mmHg; • 2) peak airway pressure (AWP) <15 cmH2O; and • 3) pulmonary blood flow (PBF) >10 ml/min. […] The included lungs were then flooded with gentle intratracheal instillation of 2 ml normal saline and the recorded variables measured for 2 subsequent hours.
Histological analysis. Random lung samples were fixed for light and electron microscopy and analyzed by pathologists blinded to the lung's protocol group assignment.

With “TNF: E.coli-derived recombinant murine TNF”, in the series on normal rats, the “increase of alveolar liquid clearance” value is recorded as 43%. Further, the “clearing alveolar fluid content ex vivo” value in series [1] (after intratracheal instillation, summary in words) is listed as “capable of clearing alveolar fluid content”. In addition, the “Weight loss of ex vivo instilled rat lung over 80 min” value in series [1] (recombinant TNF 5 μg/lung alone, listed as mTNF) was 589 mg and 722 mg and 584 mg. In addition, the “lung weight change over time after alveolar flooding” value in the series on isolated rat lungs (2 hours reperfusion after 2 ml saline, TNF 5 μg, peptides 1 mg) was “no significant change in weight over time”. Moreover, the “lung mechanics (peak AWP, Cdyn, Raw) after alveolar flooding” value in the series on isolated rat lungs (2 hours reperfusion, TNF 5 μg, peptides 1 mg) was “no difference from the saline-treated group”. Besides, in the series with isolated rat lungs (end of 2-hour reperfusion, TNF 5 μg, peptide 1 mg), the “lower inflection point of inspiratory quasi-static PV curve” value turned out to be 20.0±0.8 cmH2O. In addition, the “leukocyte infiltration (lung histology)” value in the series with isolated rat lungs (hematoxylin-stained slices, compared to controls) was “significantly increased leukocyte infiltration”. The “endothelial flaps and epithelial blebs (electron microscopy)” value with isolated rat lungs (pretreated lungs after flooding and 2 hours reperfusion) is “prominent numerous endothelial flaps”. Also, the “increase in alveolar fluid clearance (AFC)” value with C57/BL6 wild type mice is listed as 24%. In addition, in series [2], the “fluorescence quenching by brominated lipids” value is listed as “unable to see any fluorescence quenching”.
